Columns and labels:
Amar. retro. = test: preemergence treatment in the greenhouse, % damage; format: in vivo
Text: (§1) The vessels employed were plastic flowerpots having a volume of 300 cm^3; the substrate was a sandy loam containing about 1.5% humus. The seeds of the test plants (see Table 1) were sown shallow, and separated according to species. In the case of Cyperus esculentus, pregerminated tubers were planted. In the preemergence treatment, the active ingredients were then immediately applied to the surface of the soil. They were suspended or emulsified in water as the vehicle, and sprayed through atomizing nozzles. After the agents had been applied, the vessels were lightly sprinkler-irrigated to set germination and growth going, and to activate the chemical agents. The vessels were then covered with transparent plastic hoods until the plants had taken root. This cover ensured uniform germination of the test plants (to the extent that this was not impaired by the chemicals), and prevented readily volatile substances from evaporating.
(§2) For postemergence treatment, the plants were first grown to a height of from 3 to 10 cm, depending on their habit, before treated. Hoods were not placed on the pots. The experiments were set up in the greenhouse, hotter areas (25° to 40° C.) being preferred for heat-loving species, and 15° to 30° C. for plants from moderate climates. The experiments were carried out for from 4 to 6 weeks. During this period the plants were tended and their reaction to the various treatments was assessed. The following tables contain the substances investigated, the application rates in kg/ha of active ingredient, and the test plant species. Assessments were made on a 0 to 100 scale, 0 denoting no damage or normal emergence, and 100 denoting no emergence or complete destruction of at least the visible plant parts.

Bromus spp. = test: preemergence treatment in the greenhouse, % damage; format: in vivo
Text: as §1, §2

Chrys. seget. = test: preemergence treatment in the greenhouse, % damage; format: in vivo; details: 0.25 kg/ha
Text: as §1, §2

Euph. gen. = test: preemergence treatment in the greenhouse, % damage; format: in vivo; details: 0.25 kg/ha
Text: as §1, §2

Poa annua = test: preemergence treatment in the greenhouse, % damage; format: in vivo; details: 0.25 kg/ha
Text: as §1, §2

Solanum nigrum = test: preemergence treatment in the greenhouse, % damage; format: in vivo
Text: as §1, §2

Sorgh. halep. = test: preemergence treatment in the greenhouse, % damage; format: in vivo
Text: as §1, §2

Alopec. myosur. [1] = test: preemergence application in the open, % damage; format: in vivo
Experimental: (§3) The experiments were carried out on small plots. The soil was a sandy loam having a pH of from 5 to 6 and containing from 1 to 1.5% humus. The treatment was preemergence, the active ingredients being applied immediately or at the latest 3 days after sowing. The crop plants were sown in rows. The weed flora was made up of the most widely varying species and was natural; the weed flora depended on the time of the year and in part on the crop (e.g., spring-germinating, summer-germinating). The substances were emulsified or suspended in water as the vehicle, and applied by means of a motor-driven plot spray mounted on a hitch. When no rain fell, the plots were watered to ensure germination and growth of the crop plants and weeds. All the experiments were run for several weeks. Over this period, assessments were made at certain intervals on the 0 to 100 scale.

Anth./Matric. = test: preemergence application in the open, % damage; format: in vivo
Experimental: as §3

Brassica napus [2] = test: preemergence application in the open, % damage; format: in vivo
Experimental: as §3

Lamium spp. = test: preemergence application in the open, % damage; format: in vivo
Experimental: as §3

Stellaria media = test: preemergence application in the open, % damage; format: in vivo
Experimental: as §3

Alopec. myosur. [3] = test: preemergence treatment in the greenhouse, % damage; format: in vivo
Text: as §1, §2

Cyperus ferax = test: preemergence treatment in the greenhouse, % damage; format: in vivo
Text: as §1, §2

Echin. c.g. = test: preemergence treatment in the greenhouse, % damage; format: in vivo
Text: as §1, §2

Matric. spp. = test: preemergence treatment in the greenhouse, % damage; format: in vivo
Text: as §1, §2

Setaria spp. = test: preemergence treatment in the greenhouse, % damage; format: in vivo
Text: as §1, §2

Glyc. max = test: preemergence treatment in the greenhouse, % damage; format: in vivo, Glycine max
Text: as §1, §2

Cyp. diff. = test: preemergence treatment in the greenhouse, % damage; format: in vivo
Text: as §1, §2

Brassica napus [4] = test: preemergence treatment in the greenhouse, % damage; format: in vivo; details: 2.0 kg/ha
Text: as §1, §2

Zea mays = test: preemergence treatment in the greenhouse, % damage; format: in vivo; details: 2.0 kg/ha
Text: as §1, §2

Cenchr. ech. = test: preemergence treatment in the greenhouse, % damage; format: in vivo
Text: as §1, §2

Ipom. spp. = test: preemergence treatment in the greenhouse, % damage; format: in vivo
Text: as §1, §2

Lept. spp. = test: preemergence treatment in the greenhouse, % damage; format: in vivo
Text: as §1, §2

Panic. virg. = test: preemergence treatment in the greenhouse, % damage; format: in vivo
Text: as §1, §2

Sida spin. = test: preemergence treatment in the greenhouse, % damage; format: in vivo
Text: as §1, §2

Gossyp. hirs. = test: preemergence treatment in the greenhouse, % damage; format: in vivo, Gosspyium hirsutum
Text: as §1, §2

Beta vulg. [5] = test: preemergence treatment in the greenhouse, % damage; format: in vivo, Beta vulgaris
Text: as §1, §2

Beta vulg. [6] = test: Table 13, % damage; format: in vivo, Beta vulgaris; details: appl. rate 1.0
Text: as §1, §2

Alopec. myosur. [7] = test: Table 13, % damage; format: in vivo; details: appl. rate 1.0
Text: as §1, §2

Echin c.g. = test: Table 13, % damage; format: in vivo; details: appl. rate 1.0
Text: as §1, §2

Setar. spp. = test: Table 13, % damage; format: in vivo; details: appl. rate 1.0
Text: as §1, §2

In the case of CCc1cccc(C)c1N(Cn1cccn1)C(=O)CCl [Compound 7], the “% damage” value (Amar. retro.; 0.25 kg/ha) is reported as 88%, the “% damage” value (Bromus spp.; 0.25 kg/ha) is reported as 95% and the “% damage” value (Chrys. seget.) is reported as 100%. For the same molecule, the “% damage” value (Euph. gen.) was 80%, the “% damage” value (Poa annua) was 100% and the “% damage” value (Solanum nigrum; 0.25 kg/ha) was 100%. The “% damage” value (Sorgh. halep.; 0.25 kg/ha) was 75%, the “% damage” value (Alopec. myosur. [1]; 0.5 kg/ha) was 70% and the “% damage” value (Alopec. myosur. [1]; 1.0 kg/ha) was 85%. For the same molecule, the “% damage” value (Anth./Matric.; 0.5 kg/ha) was 100%, the “% damage” value (Brassica napus [2]; 0.5 kg/ha) was 5% and the “% damage” value (Brassica napus [2]; 1.0 kg/ha) was 10%. For the same molecule, the “% damage” value (Lamium spp.; 0.5 kg/ha) was 95%, the “% damage” value (Lamium spp.; 1.0 kg/ha) was 100% and the “% damage” value (Stellaria media; 0.5 kg/ha) was 80%. For the same molecule, the “% damage” value (Stellaria media; 1.0 kg/ha) was 95%.
COc1cnn(CN(C(=O)CCl)c2c(C)cccc2C)c1 was tested, and the “% damage” value (Alopec. myosur. [3]; 0.5 kg/ha) was 100%, the “% damage” value (Alopec. myosur. [3]; 1.0 kg/ha) was 100% and the “% damage” value (Bromus spp.; 0.5 kg/ha) was 100%. The “% damage” value (Bromus spp.; 1.0 kg/ha) was 100%, the “% damage” value (Cyperus ferax; 0.5 kg/ha) was 100% and the “% damage” value (Cyperus ferax; 1.0 kg/ha) was 100%. The “% damage” value (Echin. c.g.; 0.5 kg/ha) was 100%, the “% damage” value (Echin. c.g.; 1.0 kg/ha) was 100% and the “% damage” value (Matric. spp.; 0.5 kg/ha) was 95%. The “% damage” value (Matric. spp.; 1.0 kg/ha) was 95%, the “% damage” value (Setaria spp.; 0.5 kg/ha) was 100% and the “% damage” value (Setaria spp.; 1.0 kg/ha) was 100%. For the same molecule, the “% damage” value (Glyc. max; 0.5 kg/ha) was 0% and the “% damage” value (Glyc. max; 1.0 kg/ha) was 0%.
With CCc1cccc(C)c1N(Cn1nc(C)cc1C)C(=O)CCl [Compound 40] the “% damage” value (Amar. retro.; 0.125 kg/ha) was 90%, the “% damage” value (Amar. retro.; 0.25 kg/ha) was 100% and the “% damage” value (Bromus spp.; 0.25 kg/ha) was 80%. The “% damage” value (Chrys. seget.) was 30%, the “% damage” value (Cyp. diff.; 0.125 kg/ha) was 100% and the “% damage” value (Cyp. diff.; 0.25 kg/ha) was 100%. The “% damage” value (Euph. gen.) was 0%, the “% damage” value (Poa annua) was 100% and the “% damage” value (Solanum nigrum; one value printed for two rates (0.125 0.25 kg/ha)) was 95%. The “% damage” value (Sorgh. halep.; 0.125 kg/ha) was 60%, the “% damage” value (Sorgh. halep.; 0.25 kg/ha) was 60% and the “% damage” value (Alopec. myosur. [1]; 1.0 kg/ha) was 50%. For the same molecule, the “% damage” value (Anth./Matric.; 1.0 kg/ha) was 90%, the “% damage” value (Brassica napus [2]; 1.0 kg/ha) was 20% and the “% damage” value (Lamium spp.; 1.0 kg/ha) was 60%. The “% damage” value (Stellaria media; 1.0 kg/ha) was 68%.
For Cc1ccccc1N(Cn1nc(C)c(C)c1C)C(=O)CCl, the “% damage” value (Alopec. myosur. [3]; 2.0 kg/ha) was 50%, the “% damage” value (Brassica napus [4]) was 30% and the “% damage” value (Bromus spp.; 2.0 kg/ha) was 80%. For the same molecule, the “% damage” value (Echin. c.g.; 2.0 kg/ha) was 55%, the “% damage” value (Matric. spp.; 2.0 kg/ha) was 95% and the “% damage” value (Setaria spp.; 2.0 kg/ha) was 100%. For the same molecule, the “% damage” value (Solanum nigrum; 2.0 kg/ha) was 100% and the “% damage” value (Zea mays) was 10%.
CCc1cccc(CC)c1N(COC)C(=O)CCl [bekannt, reference compound] was tested, and the “% damage” value (Amar. retro.; 0.25 kg/ha) was 68%, the “% damage” value (Amar. retro.; 0.5 kg/ha) was 81% and the “% damage” value (Amar. retro.; 1.0 kg/ha) was 88%. For the same molecule, the “% damage” value (Amar. retro.; 2.0 kg/ha) was 92%, the “% damage” value (Cenchr. ech.; 0.25 kg/ha) was 92% and the “% damage” value (Cenchr. ech.; 0.5 kg/ha) was 95%. For the same molecule, the “% damage” value (Cenchr. ech.; 1.0 kg/ha) was 100%, the “% damage” value (Cenchr. ech.; 2.0 kg/ha) was 100% and the “% damage” value (Cyp. diff.; 0.25 kg/ha) was 65%. The “% damage” value (Cyp. diff.; 0.5 kg/ha) was 70%, the “% damage” value (Cyp. diff.; 1.0 kg/ha) was 78% and the “% damage” value (Cyp. diff.; 2.0 kg/ha) was 100%. The “% damage” value (Echin. c.g.; 0.25 kg/ha) was 45%, the “% damage” value (Echin. c.g.; 0.5 kg/ha) was 75% and the “% damage” value (Echin. c.g.; 1.0 kg/ha) was 90%. The “% damage” value (Echin. c.g.; 2.0 kg/ha) was 95%, the “% damage” value (Ipom. spp.; 1.0 kg/ha) was 20% and the “% damage” value (Ipom. spp.; 2.0 kg/ha) was 30%. The “% damage” value (Lept. spp.; 0.25 kg/ha) was 100%, the “% damage” value (Lept. spp.; 0.5 kg/ha) was 100% and the “% damage” value (Lept. spp.; 1.0 kg/ha) was 100%. The “% damage” value (Lept. spp.; 2.0 kg/ha) was 100%, the “% damage” value (Panic. virg.; 0.25 kg/ha) was 30% and the “% damage” value (Panic. virg.; 0.5 kg/ha) was 45%. The “% damage” value (Panic. virg.; 1.0 kg/ha) was 92%, the “% damage” value (Panic. virg.; 2.0 kg/ha) was 100% and the “% damage” value (Sida spin.; 1.0 kg/ha) was 10%. The “% damage” value (Sida spin.; 2.0 kg/ha) was 70%, the “% damage” value (Solanum nigrum; 0.25 kg/ha) was 50% and the “% damage” value (Solanum nigrum; 0.5 kg/ha) was 73%. The “% damage” value (Solanum nigrum; 1.0 kg/ha) was 90%, the “% damage” value (Solanum nigrum; 2.0 kg/ha) was 90% and the “% damage” value (Glyc. max; 0.25 kg/ha) was 0%. For the same molecule, the “% damage” value (Glyc. max; 0.5 kg/ha) was 0%, the “% damage” value (Glyc. max; 1.0 kg/ha) was 0% and the “% damage” value (Glyc. max; 2.0 kg/ha) was 0%. For the same molecule, the “% damage” value (Gossyp. hirs.; 0.25 kg/ha) was 0%, the “% damage” value (Gossyp. hirs.; 0.5 kg/ha) was 6% and the “% damage” value (Gossyp. hirs.; 1.0 kg/ha) was 20%. The “% damage” value (Gossyp. hirs.; 2.0 kg/ha) was 45%.
CCc1cccc(CC)c1N(Cn1cc(OC)cn1)C(=O)CCl was tested, and the “% damage” value (Alopec. myosur. [3]; 1.0 kg/ha) was 99%, the “% damage” value (Alopec. myosur. [3]; 2.0 kg/ha) was 99% and the “% damage” value (Bromus spp.; 1.0 kg/ha) was 98%. The “% damage” value (Bromus spp.; 2.0 kg/ha) was 98%, the “% damage” value (Cyperus ferax; 1.0 kg/ha) was 100% and the “% damage” value (Cyperus ferax; 2.0 kg/ha) was 100%. The “% damage” value (Echin. c.g.; 1.0 kg/ha) was 100%, the “% damage” value (Echin. c.g.; 2.0 kg/ha) was 100% and the “% damage” value (Matric. spp.; 1.0 kg/ha) was 90%. The “% damage” value (Matric. spp.; 2.0 kg/ha) was 98%, the “% damage” value (Setaria spp.; 1.0 kg/ha) was 100% and the “% damage” value (Setaria spp.; 2.0 kg/ha) was 100%. The “% damage” value (Glyc. max; 1.0 kg/ha) was 0%, the “% damage” value (Glyc. max; 2.0 kg/ha) was 0% and the “% damage” value (Beta vulg. [5]; 1.0 kg/ha) was 10%. The “% damage” value (Beta vulg. [5]; 2.0 kg/ha) was 15%.
With Cc1cccc(C)c1N(Cn1ccnc1)C(=O)CCl the “% damage” value (Beta vulg. [6]) was 0%, the “% damage” value (Alopec. myosur. [7]) was 20% and the “% damage” value (Echin c.g.) was 40%. For the same molecule, the “% damage” value (Setar. spp.) was 20%.

Source: patent US4593104A, “2-halo-N-(azole-1-yl-methyl)-substituted acetanilides” (BASF Aktiengesellschaft, priority 1976, dated 1986)
